In data set [1] the target is RAF proto-oncogene serine/threonine-protein kinase (Homo sapiens) (UniProt P04049). Description: In vitro percent inhibition of RAF proto-oncogene serine/threonine-protein kinase at 10 uM concentration of compound dissolved in 100% DMSO using 5''-[gamma-33P]-triphosphate.
The target of data set [2] is RAC-alpha serine/threonine-protein kinase (Homo sapiens) (UniProt P31749). Description: In vitro percent inhibition of Protein kinase B, alpha at 10 uM concentration of compound dissolved in 100% DMSO using 5''-[gamma-33P]-triphosphate.
The target in data set [3] is Tyrosine-protein kinase Lck (Homo sapiens) (UniProt P06239). Briefly: In vitro percent inhibition of p56 Lck tyrosine kinase at 10 uM concentration of compound dissolved in 100% DMSO using 5''-[gamma-33P]-triphosphate.
Data set [4] concerns the target Glycogen synthase kinase-3 beta (Homo sapiens) (UniProt P49841). Briefly: In vitro percent inhibition of Glycogen synthase kinase 3 beta at 10 uM concentration of compound dissolved in 100% DMSO using 5''-[gamma-33P]-triphosphate.
In data set [5] the target is Mast/stem cell growth factor receptor Kit (Homo sapiens) (UniProt P10721). Briefly: In vitro percent inhibition of v-kit Hardy-Zuckerman 4 feline sarcoma viral oncogene homolog at 10 uM concentration of compound dissolved in 100% DMSO using 5''-[gamma-33P]-triphosphate.
The target in data set [6] is Casein kinase I isoform alpha (Homo sapiens) (UniProt P48729). Description: In vitro percent inhibition of Casein kinase 1 alpha at 10 uM concentration of compound dissolved in 100% DMSO using 5''-[gamma-33P]-triphosphate.
Data set [7] deals with T1, Inhibitor of nuclear factor kappa-B kinase subunit beta (Homo sapiens) (UniProt O14920).
T1 sequence (whole entry): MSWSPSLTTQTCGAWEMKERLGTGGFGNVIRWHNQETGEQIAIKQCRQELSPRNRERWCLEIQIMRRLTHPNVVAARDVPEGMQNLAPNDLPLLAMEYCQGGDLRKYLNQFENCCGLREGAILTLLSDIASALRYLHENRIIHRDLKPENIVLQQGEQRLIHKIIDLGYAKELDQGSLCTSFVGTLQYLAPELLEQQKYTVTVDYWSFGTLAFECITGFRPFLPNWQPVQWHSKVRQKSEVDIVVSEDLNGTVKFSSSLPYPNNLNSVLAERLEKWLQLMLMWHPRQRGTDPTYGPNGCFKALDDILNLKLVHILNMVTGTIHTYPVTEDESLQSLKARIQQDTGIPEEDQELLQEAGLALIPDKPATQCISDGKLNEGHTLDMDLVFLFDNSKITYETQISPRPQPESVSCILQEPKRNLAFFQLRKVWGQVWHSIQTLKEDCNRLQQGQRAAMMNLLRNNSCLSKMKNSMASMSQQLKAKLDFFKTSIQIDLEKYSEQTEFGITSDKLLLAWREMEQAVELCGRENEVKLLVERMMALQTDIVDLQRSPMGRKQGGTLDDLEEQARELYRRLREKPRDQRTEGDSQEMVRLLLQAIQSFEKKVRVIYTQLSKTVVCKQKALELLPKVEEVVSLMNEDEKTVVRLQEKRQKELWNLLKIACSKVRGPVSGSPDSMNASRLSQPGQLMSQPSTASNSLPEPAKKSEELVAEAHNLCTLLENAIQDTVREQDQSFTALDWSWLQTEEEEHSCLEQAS
Briefly: In vitro percent inhibition of I-kappa-B-kinase beta at 10 uM concentration of compound dissolved in 100% DMSO using 5''-[gamma-33P]-triphosphate.

Data set [8] addresses Insulin receptor (Homo sapiens) (UniProt P06213). Description: In vitro percent inhibition of Insulin receptor at 10 uM concentration of compound dissolved in 100% DMSO using 5''-[gamma-33P]-triphosphate.
In data set [9] the target is Epidermal growth factor receptor (Homo sapiens) (UniProt P00533). The following applies: 10 uM.
The target in data set [10] is Proto-oncogene tyrosine-protein kinase Src (Homo sapiens) (UniProt P12931). Briefly: In vitro percent inhibition of c-Src tyrosine kinase at 10 uM concentration of compound dissolved in 100% DMSO using 5''-[gamma-33P]-triphosphate.
A short description of data set [11]: In vitro percent inhibition of Cyclin-dependent kinase 2-cyclin A at 10 uM concentration of compound dissolved in 100% DMSO using 5''-[gamma-33P]-triphosphate.
The target in data set [12] is Hepatocyte growth factor receptor (Homo sapiens) (UniProt P08581). Description: In vitro percent inhibition of Met proto-oncogene tyrosine kinase at 10 uM concentration of compound dissolved in 100% DMSO using 5''-[gamma-33P]-triphosphate.
Data set [13] has as its target T2, Tyrosine-protein kinase transforming protein Abl (Abelson murine leukemia virus) (UniProt P00521).
T2 sequence (whole entry): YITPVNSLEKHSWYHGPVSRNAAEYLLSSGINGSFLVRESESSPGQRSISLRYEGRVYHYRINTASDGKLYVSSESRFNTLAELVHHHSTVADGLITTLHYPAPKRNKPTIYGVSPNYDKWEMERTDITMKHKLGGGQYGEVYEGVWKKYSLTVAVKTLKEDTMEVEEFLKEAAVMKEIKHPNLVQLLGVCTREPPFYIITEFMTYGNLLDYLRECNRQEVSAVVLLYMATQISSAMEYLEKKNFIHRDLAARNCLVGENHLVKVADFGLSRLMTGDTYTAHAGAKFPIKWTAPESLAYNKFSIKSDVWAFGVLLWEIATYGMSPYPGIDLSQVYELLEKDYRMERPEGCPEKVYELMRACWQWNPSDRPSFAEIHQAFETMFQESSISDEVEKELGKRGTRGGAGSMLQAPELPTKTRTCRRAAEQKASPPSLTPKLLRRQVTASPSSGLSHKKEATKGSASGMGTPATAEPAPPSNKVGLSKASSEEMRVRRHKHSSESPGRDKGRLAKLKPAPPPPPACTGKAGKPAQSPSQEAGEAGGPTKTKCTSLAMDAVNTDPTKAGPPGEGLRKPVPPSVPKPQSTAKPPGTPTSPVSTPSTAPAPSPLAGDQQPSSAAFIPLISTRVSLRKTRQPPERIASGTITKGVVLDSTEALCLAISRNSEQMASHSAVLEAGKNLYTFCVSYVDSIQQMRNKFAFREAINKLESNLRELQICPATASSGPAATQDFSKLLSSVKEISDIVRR
Briefly: In vitro percent inhibition of v-Abl tyrosine kinase at 10 uM concentration of compound dissolved in 100% DMSO using 5''-[gamma-33P]-triphosphate.

The nature of data set [14]: In vitro percent inhibition of Ribosomal S6 kinase 1 at 10 uM concentration of compound dissolved in 100% DMSO using 5''-[gamma-33P]-triphosphate.
The nature of data set [15]: Partition coefficient (logP). In kind it is physicochemical. To be noted: octanol/water.
In data set [16] the target is Mitogen-activated protein kinase 3 (Homo sapiens) (UniProt P27361). Briefly: In vitro percent inhibition of Mitogen-activated protein kinase 3 at 10 uM concentration of compound dissolved in 100% DMSO using 5''-[gamma-33P]-triphosphate.
The target in data set [17] is Mitogen-activated protein kinase 8 (Homo sapiens) (UniProt P45983). Briefly: In vitro percent inhibition of c-Jun N-terminal kinase 1-alpha 1 at 10 uM concentration of compound dissolved in 100% DMSO using 5''-[gamma-33P]-triphosphate.
For data set [18], the target named is Ribosomal protein S6 kinase (P70S6K) (Homo sapiens) (UniProt Q9UBS0+P23443). Briefly: In vitro percent inhibition of Ribosomal protein S6 kinase at 10 uM concentration of compound dissolved in 100% DMSO using 5''-[gamma-33P]-triphosphate. In kind it is protein-complex assay.
The target of data set [19] is Platelet-derived growth factor receptor beta (Homo sapiens) (UniProt P09619). Description: In vitro percent inhibition of Platelet-derived growth factor receptor, beta polypeptide at 10 uM concentration of compound dissolved in 100% DMSO using 5''-[gamma-33P]-triphosphate.
The target of data set [20] is Rho-associated protein kinase 2 (Homo sapiens) (UniProt O75116). Description: In vitro percent inhibition of Protein kinase ROCK2 at 10 uM concentration of compound dissolved in 100% DMSO using 5''-[gamma-33P]-triphosphate.
The test system of the next data set is SRPK1 (Homo sapiens). Briefly: In vitro inhibition of SR protein kinase 1 by compound dissolved in 100% DMSO using 5''-[gamma-33P]-triphosphate; n.a. - not active.

The structures appear in SMILES notation.

Sequence of Proto-oncogene tyrosine-protein kinase Src (Homo sapiens) (P12931 2-536 limits assumed): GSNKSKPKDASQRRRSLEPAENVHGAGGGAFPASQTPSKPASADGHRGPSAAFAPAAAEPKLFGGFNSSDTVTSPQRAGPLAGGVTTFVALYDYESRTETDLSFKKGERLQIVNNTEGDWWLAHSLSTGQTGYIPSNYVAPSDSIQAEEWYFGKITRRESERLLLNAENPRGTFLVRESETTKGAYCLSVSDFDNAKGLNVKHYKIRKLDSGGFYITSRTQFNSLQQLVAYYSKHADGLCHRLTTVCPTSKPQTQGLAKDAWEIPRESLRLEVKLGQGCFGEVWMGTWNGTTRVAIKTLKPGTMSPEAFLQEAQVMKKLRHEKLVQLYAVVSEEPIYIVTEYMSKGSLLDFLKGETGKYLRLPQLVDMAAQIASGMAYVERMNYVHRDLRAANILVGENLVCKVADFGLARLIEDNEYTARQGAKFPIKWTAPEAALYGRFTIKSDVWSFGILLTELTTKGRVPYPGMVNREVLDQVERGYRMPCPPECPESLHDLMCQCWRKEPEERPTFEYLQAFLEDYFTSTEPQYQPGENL
Sequence of RAC-alpha serine/threonine-protein kinase (Homo sapiens) (P31749 whole entry): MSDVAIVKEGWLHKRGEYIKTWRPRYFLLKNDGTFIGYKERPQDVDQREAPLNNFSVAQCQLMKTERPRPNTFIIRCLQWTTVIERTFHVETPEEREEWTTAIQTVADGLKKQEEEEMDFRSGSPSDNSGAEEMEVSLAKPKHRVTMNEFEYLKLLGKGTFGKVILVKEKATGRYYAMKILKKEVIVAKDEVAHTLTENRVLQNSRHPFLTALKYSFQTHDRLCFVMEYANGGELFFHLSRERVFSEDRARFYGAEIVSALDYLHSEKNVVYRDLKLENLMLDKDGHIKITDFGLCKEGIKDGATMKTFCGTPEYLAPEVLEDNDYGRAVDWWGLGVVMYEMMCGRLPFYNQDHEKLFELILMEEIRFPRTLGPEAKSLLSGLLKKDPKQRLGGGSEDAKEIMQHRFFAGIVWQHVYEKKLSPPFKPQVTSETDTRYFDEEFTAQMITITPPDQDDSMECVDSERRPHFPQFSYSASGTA
Sequence of Hepatocyte growth factor receptor (Homo sapiens) (P08581 whole entry): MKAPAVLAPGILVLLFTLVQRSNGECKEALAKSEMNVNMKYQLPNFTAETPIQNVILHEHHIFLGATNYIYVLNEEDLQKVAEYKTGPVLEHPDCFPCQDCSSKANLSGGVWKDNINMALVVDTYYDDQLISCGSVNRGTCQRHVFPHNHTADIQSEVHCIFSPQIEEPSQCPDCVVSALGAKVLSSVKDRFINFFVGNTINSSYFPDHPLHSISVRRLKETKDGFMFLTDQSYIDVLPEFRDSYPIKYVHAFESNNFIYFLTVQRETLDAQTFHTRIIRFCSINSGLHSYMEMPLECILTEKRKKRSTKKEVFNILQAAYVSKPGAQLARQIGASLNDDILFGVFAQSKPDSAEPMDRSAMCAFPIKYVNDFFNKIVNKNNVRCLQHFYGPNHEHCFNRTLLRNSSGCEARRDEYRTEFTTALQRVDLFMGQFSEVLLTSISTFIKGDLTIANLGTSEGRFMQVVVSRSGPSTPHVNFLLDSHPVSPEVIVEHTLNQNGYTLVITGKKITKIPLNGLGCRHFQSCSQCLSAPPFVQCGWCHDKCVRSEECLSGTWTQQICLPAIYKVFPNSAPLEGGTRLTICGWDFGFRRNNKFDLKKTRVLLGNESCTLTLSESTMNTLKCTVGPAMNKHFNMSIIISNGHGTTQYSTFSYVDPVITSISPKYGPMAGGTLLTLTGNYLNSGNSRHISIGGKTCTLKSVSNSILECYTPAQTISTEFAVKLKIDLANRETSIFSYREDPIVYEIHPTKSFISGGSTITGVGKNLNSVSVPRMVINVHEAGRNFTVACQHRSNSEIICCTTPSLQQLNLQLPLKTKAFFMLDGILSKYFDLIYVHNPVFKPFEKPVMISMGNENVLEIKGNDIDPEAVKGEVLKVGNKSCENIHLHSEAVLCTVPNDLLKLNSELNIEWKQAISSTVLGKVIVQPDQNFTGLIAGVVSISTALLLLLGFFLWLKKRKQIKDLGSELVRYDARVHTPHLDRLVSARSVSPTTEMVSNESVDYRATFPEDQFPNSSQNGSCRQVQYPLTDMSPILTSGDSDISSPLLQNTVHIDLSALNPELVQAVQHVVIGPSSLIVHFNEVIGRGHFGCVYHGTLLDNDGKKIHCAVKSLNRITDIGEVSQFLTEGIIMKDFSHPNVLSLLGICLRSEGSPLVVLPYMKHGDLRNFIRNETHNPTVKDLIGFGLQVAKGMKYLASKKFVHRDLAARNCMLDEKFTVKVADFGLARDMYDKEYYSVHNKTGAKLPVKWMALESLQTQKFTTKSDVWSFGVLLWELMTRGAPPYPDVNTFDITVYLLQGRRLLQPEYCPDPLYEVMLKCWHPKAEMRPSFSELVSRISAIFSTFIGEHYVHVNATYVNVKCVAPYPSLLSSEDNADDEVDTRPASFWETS
Sequence of Casein kinase I isoform alpha (Homo sapiens) (P48729 2-337 limits assumed): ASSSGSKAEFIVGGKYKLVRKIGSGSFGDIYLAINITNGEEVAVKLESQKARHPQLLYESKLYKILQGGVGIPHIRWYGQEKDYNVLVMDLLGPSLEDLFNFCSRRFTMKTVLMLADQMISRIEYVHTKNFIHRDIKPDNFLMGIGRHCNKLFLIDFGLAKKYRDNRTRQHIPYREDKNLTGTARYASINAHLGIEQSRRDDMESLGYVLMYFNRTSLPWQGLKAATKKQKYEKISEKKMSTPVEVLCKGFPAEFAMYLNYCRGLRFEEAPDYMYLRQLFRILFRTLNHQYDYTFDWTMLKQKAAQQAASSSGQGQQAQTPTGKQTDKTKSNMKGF
Sequence of Mast/stem cell growth factor receptor Kit (Homo sapiens) (P10721 whole entry, canonical isoform): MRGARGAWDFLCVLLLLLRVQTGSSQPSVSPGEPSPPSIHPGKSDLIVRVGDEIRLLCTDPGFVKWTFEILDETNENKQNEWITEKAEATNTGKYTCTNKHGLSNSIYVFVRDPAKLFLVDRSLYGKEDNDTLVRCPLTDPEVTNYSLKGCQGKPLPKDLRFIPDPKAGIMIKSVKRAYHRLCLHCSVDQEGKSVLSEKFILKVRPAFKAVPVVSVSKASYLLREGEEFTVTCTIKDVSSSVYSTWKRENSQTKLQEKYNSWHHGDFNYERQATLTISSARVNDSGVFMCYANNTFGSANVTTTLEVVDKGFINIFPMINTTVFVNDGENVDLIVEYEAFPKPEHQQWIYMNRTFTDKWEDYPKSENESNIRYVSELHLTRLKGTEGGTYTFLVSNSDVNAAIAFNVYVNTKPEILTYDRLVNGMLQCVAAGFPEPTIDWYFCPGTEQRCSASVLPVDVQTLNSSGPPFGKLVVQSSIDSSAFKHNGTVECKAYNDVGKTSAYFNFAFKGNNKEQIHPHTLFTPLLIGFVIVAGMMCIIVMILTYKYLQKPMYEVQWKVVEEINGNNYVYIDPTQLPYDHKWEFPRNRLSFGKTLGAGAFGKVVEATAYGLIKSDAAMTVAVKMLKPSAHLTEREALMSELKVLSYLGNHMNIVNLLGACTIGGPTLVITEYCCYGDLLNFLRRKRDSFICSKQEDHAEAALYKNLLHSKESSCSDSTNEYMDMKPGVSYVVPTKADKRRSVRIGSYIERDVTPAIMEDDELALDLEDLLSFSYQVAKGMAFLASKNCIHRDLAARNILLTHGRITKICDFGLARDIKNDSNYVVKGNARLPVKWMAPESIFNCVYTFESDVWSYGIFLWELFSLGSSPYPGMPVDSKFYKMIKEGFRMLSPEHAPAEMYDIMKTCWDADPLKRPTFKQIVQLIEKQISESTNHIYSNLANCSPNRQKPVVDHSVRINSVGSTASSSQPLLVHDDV
Sequence of Glycogen synthase kinase-3 beta (Homo sapiens) (P49841 whole entry, looked up): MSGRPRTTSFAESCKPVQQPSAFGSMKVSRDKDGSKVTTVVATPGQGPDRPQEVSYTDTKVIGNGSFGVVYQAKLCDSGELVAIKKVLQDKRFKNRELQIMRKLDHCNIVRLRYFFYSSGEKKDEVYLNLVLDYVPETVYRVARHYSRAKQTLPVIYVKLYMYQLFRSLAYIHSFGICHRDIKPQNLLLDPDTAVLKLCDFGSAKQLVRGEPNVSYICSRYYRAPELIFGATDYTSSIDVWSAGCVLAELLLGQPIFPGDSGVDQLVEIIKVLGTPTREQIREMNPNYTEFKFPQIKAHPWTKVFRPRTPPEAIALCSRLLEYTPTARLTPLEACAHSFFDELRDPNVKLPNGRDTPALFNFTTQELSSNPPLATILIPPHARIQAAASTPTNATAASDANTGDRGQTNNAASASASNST
Sequence of RAF proto-oncogene serine/threonine-protein kinase (Homo sapiens) (P04049 whole entry): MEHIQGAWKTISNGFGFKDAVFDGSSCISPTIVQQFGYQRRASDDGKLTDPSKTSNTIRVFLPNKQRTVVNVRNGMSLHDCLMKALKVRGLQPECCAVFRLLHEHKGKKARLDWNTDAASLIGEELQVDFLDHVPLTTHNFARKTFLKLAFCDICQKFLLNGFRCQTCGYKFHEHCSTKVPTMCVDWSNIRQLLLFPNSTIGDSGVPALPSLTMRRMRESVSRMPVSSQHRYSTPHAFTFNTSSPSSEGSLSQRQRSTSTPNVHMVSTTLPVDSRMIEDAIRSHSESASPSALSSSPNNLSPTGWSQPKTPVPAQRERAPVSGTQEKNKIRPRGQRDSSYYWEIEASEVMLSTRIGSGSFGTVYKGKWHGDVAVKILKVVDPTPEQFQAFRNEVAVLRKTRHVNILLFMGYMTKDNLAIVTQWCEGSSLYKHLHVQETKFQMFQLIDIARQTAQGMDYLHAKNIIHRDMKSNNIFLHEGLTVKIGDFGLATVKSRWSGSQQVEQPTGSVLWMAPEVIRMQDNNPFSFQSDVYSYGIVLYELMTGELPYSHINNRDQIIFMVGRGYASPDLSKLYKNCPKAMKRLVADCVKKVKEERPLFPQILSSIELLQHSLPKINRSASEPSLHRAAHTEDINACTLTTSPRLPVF

Take `Oc1cc2nc(-c3cccs3)c(-c3cccs3)nc2cc1O`: the inhibition (in general, the change of the read-out against control, counted positive when it falls) is 3% in [1]; -7% in data set [2]; 1% in data set [3]; 5% in data set [4]; -7% in data set [5]; 9% in data set [6]. In addition, the inhibition is 3% in [7]; -4% in data set [8]; 25% in data set [9]; -3% in data set [10]; 7% in data set [11]; 0% in [12]. The inhibition in data set [13] was 1%; in [14], 6%; in data set [16], 25%; in [17], -3%; in data set [18] it was -8%. For the same molecule, the logP (commonly the decadic logarithm of the partition coefficient of the neutral form, usually between octanol and water) in data set [15] amounted to 4.2.

As to `O=C(O)Cc1ccc(-c2nc3cc4ccccc4cc3nc2-c2ccc(CC(=O)O)s2)s1`, the inhibition is 39% in data set [1]; 15% in data set [2]; -9% in data set [3]; 47% in data set [4]; 15% in [5]; 10% in [19]. In addition, the inhibition in data set [6] is -2%; in data set [7], 25%; in [8], 5%; in data set [9], 52%; in data set [10] it was 14%; in data set [11] it was 8%. Besides, the inhibition is 27% in data set [12]; 10% in [13]; 23% in [14]; 52% in data set [16]; -3% in data set [17]; 5% in [20]. In addition, the inhibition in data set [18] was found to be 17%. The logP in [15] came out at 3.3.

`O=C(O)CCc1ccc(-c2nc3cc4ccccc4cc3nc2-c2ccc(CCC(=O)O)s2)s1`: the inhibition was 18% in data set [1]; 0% in data set [2]; -3% in data set [3]; 23% in [4]; 52% in data set [5]; 49% in [19]. For the same molecule, the inhibition is 40% in [6]; 54% in data set [7]; -5% in data set [8]; 40% in data set [9]; 70% in data set [10]; -4% in [11]. Moreover, the inhibition in data set [12] is 32%; in data set [13] it was 3%; in data set [14] it was 30%; in data set [16], 11%; in data set [17] it was -5%; in data set [20], 18%. In data set [18], the inhibition stood at 29%. The logP in data set [15] stood at 4.28.

With `COC(=O)CCCc1ccc(-c2nc3cc4ccccc4cc3nc2-c2ccc(CCCC(=O)OC)s2)s1`, the inhibition in [1] is 42%; in data set [2], -6%; in data set [3], 2%; in data set [4] it was 24%; in data set [5], 5%; in data set [19] it was 47%. Besides, the inhibition was found to be 30% in data set [6]; 16% in [7]; 8% in [9]; 25% in data set [11]; 12% in data set [12]; 15% in data set [13]. In addition, the inhibition in [14] is 38%; in data set [16] it was 8%; in data set [17], 9%; in data set [20], 5%; in [18] it was -7%. The IC50 entry with SRPK1 (Homo sapiens) is recorded as “Not Active”. For the same molecule, in data set [15], the logP is 5.5.

For the molecule `O=C(O)c1ccc2cc3nc(-c4cccs4)c(-c4cccs4)nc3cc2c1`, the inhibition in data set [1] is 6%; in data set [2], -10%; in data set [3] it was 47%; in data set [4] it was 4%; in [5] it was 56%; in data set [19], 68%. Besides, the inhibition worked out at 10% in [6]; 42% in [7]; 42% in data set [8]; 40% in [9]; 83% in [10]; 49% in [12]. Besides, the inhibition stood at 11% in data set [13]; 3% in data set [14]; 18% in data set [16]; 20% in data set [17]; 15% in [20]; 5% in [18]. In data set [15], the logP came to 5.4.

`c1csc(-c2nc3cc4c(cc3nc2-c2cccs2)OCO4)c1`: the inhibition in data set [1] is 21%; in data set [2], -6%; in data set [3] it was 41%; in data set [4], -1%; in data set [5], 38%; in [19], 54%. Moreover, the inhibition in data set [6] is 9%; in data set [7] it was 28%; in [8], 29%; in [9] it was 35%; in [10], 71%; in data set [11], -4%. In addition, the inhibition in data set [12] was 34%; in [13] it was 14%; in [14], 1%; in data set [16], 14%; in data set [17], 18%; in data set [20], 31%. Besides, in [18], the inhibition turned out to be 6%. This molecule also returned a logP in data set [15] of 4.8.

Source of the values: ChEMBL document CHEMBL1140238, “Synthesis of selective SRPK-1 inhibitors: novel tricyclic quinoxaline derivatives” (Bioorg Med Chem Lett, 2005).
